Reference: the supplement of paper PMC5908809

Legend:
[1] = system: normal NK cells expanded with K562-aAPC; experiment: percent inhibition of viability; higher = more inhibition; details: 72 h, IL-2 2.5 ng/mL
Procedure: (§1)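 Drug sensitivity and resistance testing on K562-aAPC-expanded normal NK cells: 5 concentrations (10-fold steps over a 10,000-fold range), 72 h at 37 °C, viability by CellTiter-Glo normalised to DMSO and benzethonium chloride controls; DSS from the fitted curve.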

[2] = system: DERL-7 (IL-2 2.5 ng/mL); experiment: as above; details: 72 h
[3] = system: IMC-1 (IL-2 20 ng/mL); experiment: as above; details: 72 h
[4] = system: KAI3 (IL-2 2.5 ng/mL); experiment: as above; details: 72 h
[5] = system: KHYG-1 (IL-2 2.5 ng/mL); experiment: as above; details: 72 h
[6] = system: NK-92 (IL-2 2.5 ng/mL); experiment: as above; details: 72 h
[7] = system: NK-YS (IL-2 2.5 ng/mL); experiment: as above; details: 72 h
[8] = system: NKL (IL-2 2.5 ng/mL); experiment: as above; details: 72 h
[9] = system: SNK-6 (IL-2 2.5 ng/mL); experiment: as above; details: 72 h
[10] = system: YT (IL-2 2.5 ng/mL); experiment: as above; details: 72 h
[11] = system: normal primary NK cells, pool 1 (3 donors) (IL-2 2.5 ng/mL); experiment: as above; details: 72 h
[12] = system: normal primary NK cells, pool 1 (3 donors), resting (IL-2 0 ng/mL); experiment: as above; details: 72 h
[13] = system: normal primary NK cells, pool 2 (3 donors) (IL-2 2.5 ng/mL); experiment: as above; details: 72 h
[14] = system: normal primary NK cells, pool 3 (3 donors) (IL-2 2.5 ng/mL); experiment: as above; details: 72 h
[15] = system: normal NK cells expanded with K562-aAPC; experiment: drug sensitivity score (DSS) (DSS units); higher = more sensitive; extreme values may be limits of the assay; details: 72 h; IL-2 2.5 ng/mL
Procedure: as §1

[16] = system: DERL-7 (IL-2 2.5 ng/mL); experiment: as above; details: 72 h
[17] = system: IMC-1 (IL-2 20 ng/mL); experiment: as above; details: 72 h
[18] = system: KAI3 (IL-2 2.5 ng/mL); experiment: as above; details: 72 h
[19] = system: KHYG-1 (IL-2 2.5 ng/mL); experiment: as above; details: 72 h
[20] = system: NK-92 (IL-2 2.5 ng/mL); experiment: as above; details: 72 h
[21] = system: NK-YS (IL-2 2.5 ng/mL); experiment: as above; details: 72 h
[22] = system: NKL (IL-2 2.5 ng/mL); experiment: as above; details: 72 h
[23] = system: SNK-6 (IL-2 2.5 ng/mL); experiment: as above; details: 72 h
[24] = system: YT (IL-2 2.5 ng/mL); experiment: as above; details: 72 h
[25] = system: normal primary NK cells, pool 1 (3 donors) (IL-2 2.5 ng/mL); experiment: as above; details: 72 h
[26] = system: normal primary NK cells, pool 1 (3 donors), resting (IL-2 0 ng/mL); experiment: as above; details: 72 h
[27] = system: normal primary NK cells, pool 2 (3 donors) (IL-2 2.5 ng/mL); experiment: as above; details: 72 h
[28] = system: normal primary NK cells, pool 3 (3 donors) (IL-2 2.5 ng/mL); experiment: as above; details: 72 h

CO[C@H]1C[C@@H]2CC[C@@H](C)[C@@](O)(O2)C(=O)C(=O)N2CCCC[C@H]2C(=O)O[C@H]([C@H](C)C[C@@H]2CC[C@@H](OP(C)(C)=O)[C@H](OC)C2)CC(=O)[C@H](C)/C=C(\C)[C@@H](O)[C@@H](OC)C(=O)[C@H](C)C[C@H](C)/C=C/C=C/C=C/1C [Ridaforolimus] (max concentration tested 100 nM)
percent inhibition of viability [%]
Details	0.01 nM	0.1 nM	1 nM	10 nM	100 nM
[1]	-10	-8.61	-0.94	10.6	16.8
[2]	-15.4	2.83	28.9	51.2	57.3
[3]	-3.33	-2.56	-12.9	-45.3	-38.3
[4]	-4.12	-7.54	27.9	44	48.8
[5]	-5.83	-9.85	0.66	26.3	51.1
[6]	-28.6	-5.36	-5.98	12.4	39
[7]	-0.81	5.33	44.5	49.8	54.8
[8]	-1.33	21.2	50.1	55	58.3
[9]	-5.16	-2.57	46.2	46	55
[10]	-4.71	-6.15	16.4	48.4	45.6
[11]	-8.79	8.41	13.3	20.3	11.8
[12]	-5.23	14.6	24.1	30.7	28.2
[13]	-12.7	6.23	9.36	16.1	19.1
[14]	-5.53	6.52	5.98	8.12	11

Details	drug sensitivity score
[15]	1.24
[16]	13.3
[17]	0
[18]	12.4
[19]	5.97
[20]	3.73
[21]	16
[22]	19.2
[23]	15.6
[24]	11.2
[25]	3.96
[26]	9.48
[27]	2.58
[28]	0.06

CC[C@@H]1C(=O)N(C)c2cnc(Nc3ccc(C(=O)NC4CCN(C)CC4)cc3OC)nc2N1C1CCCC1 [BI 2536] (max concentration tested 1000 nM)
percent inhibition of viability [%]
Details	0.1 nM	1 nM	10 nM	100 nM	1000 nM
[1]	1.03	0.31	20.1	60.1	67.4
[2]	-1.78	1.66	56.8	99.1	96.4
[3]	-3.03	-6.74	26.6	96.7	95.2
[4]	-2.84	1.84	32	55.7	52.9
[5]	-0.33	-0.33	11.5	101	102
[6]	-10.3	-5.85	41.7	99.6	91.2
[7]	1.37	3.08	22.7	66.2	58.4
[8]	-16.1	-17.7	34.5	66.8	64.5
[9]	3.37	2.93	50.7	61.7	48.1
[10]	-0.96	-1.95	5.23	77.8	74.1
[11]	-8.51	7.02	-5.03	-6.42	36.1
[12]	4.96	13.2	-4.79	-10.2	31.4
[13]	-11.8	-7.85	-1.58	7	58.2
[14]	-15.6	-13.3	-7.87	-2.57	41.2

Details	drug sensitivity score
[15]	13.5
[16]	24.6
[17]	21.4
[18]	14.1
[19]	19.9
[20]	23.4
[21]	15.2
[22]	16.6
[23]	17.8
[24]	15
[25]	1.36
[26]	0.98
[27]	4.32
[28]	1.86

Nc1ccn([C@@H]2O[C@H](CO)[C@@H](O)[C@@H]2O)c(=O)n1 [Cytarabine] (max concentration tested 10000 nM)
percent inhibition of viability [%]
Details	1 nM	10 nM	100 nM	1000 nM	10000 nM
[1]	0.23	-1.23	28.7	84.4	98.9
[2]	-3.03	23.2	88.8	98.1	99.7
[3]	-2.71	-1.64	59.5	98.2	99.6
[4]	-13.4	12.5	67.4	95.8	95.5
[5]	-3.64	17.1	88.3	105	102
[6]	0.96	0.98	50.8	95.5	97.8
[7]	-6.32	-1.48	14	77.5	92.9
[8]	-6.71	6.58	60.2	94.3	93.6
[9]	18.7	4.98	31.7	83.1	97.5
[10]	-3.82	0.15	-0.65	19.1	28.4
[11]	-4.48	-4.56	-4.83	23	80.4
[12]	-11.7	-15.1	-18.8	29.4	78.7
[13]	-14.2	-13.4	-1.98	13.2	79.9
[14]	-11.3	-7.93	-9.4	7.11	73.2

Details	drug sensitivity score
[15]	19
[16]	31.5
[17]	25
[18]	26.2
[19]	30.8
[20]	23.6
[21]	16
[22]	24.4
[23]	19.1
[24]	3.34
[25]	7.89
[26]	8.4
[27]	6.63
[28]	5.19

COc1ccc(C2=N[C@@H](c3ccc(Cl)cc3)[C@@H](c3ccc(Cl)cc3)N2C(=O)N2CCNC(=O)C2)c(OC(C)C)c1 [Nutlin-3] (max concentration tested 10000 nM)
percent inhibition of viability [%]
Details	1 nM	10 nM	100 nM	1000 nM	10000 nM
[1]	-4.98	0.87	1.74	19.4	99.2
[2]	0.15	0.54	7.5	29	99.3
[3]	-5.54	-4.03	-1.5	-1.01	21.2
[4]	-3.27	-5.08	7.55	34.8	60.6
[5]	-6.71	-9.4	-3.85	-2.52	12.2
[6]	-20.5	0.59	-14.7	13	28.5
[7]	-2.06	-4.19	0.64	37.4	83.9
[8]	3.59	-3.19	6.18	9.61	42.5
[9]	-8.93	-12	-4.65	42.5	85.7
[10]	-1.48	-2.54	1.47	19.9	69.5
[11]	-5.38	6.43	9.32	29	96.8
[12]	-5.64	8.67	11.7	69	93.8
[13]	-11.5	9.9	0.22	13.9	90
[14]	-6.84	5.45	0.48	4.02	75.6

Details	drug sensitivity score
[15]	8.63
[16]	9.5
[17]	0.61
[18]	7.56
[19]	0.02
[20]	2.8
[21]	9.5
[22]	3.64
[23]	10.1
[24]	6.81
[25]	9.16
[26]	14.5
[27]	7.31
[28]	4.75
